From patent publication US20200060276A1, “THIAZOLE COMPOUND AND HERBICIDE” (OAT Agrio Co., Ltd., priority 2017, published 2020)

What was measured:
Format in all cases: in vivo
[1] = test system: Echinochloa crus-galli (L.) P. Beauv. var. formosensis Ohwi; assay: Test for Herbicidal Effect in Flooding Treatment (#1), ECHDG; conditions: for ECHDG #1 herbicidal effect (growth inhibition grade): flooding treatment at seeding, dose 2 kg/ha, visual observation on day 21; for ECHDG #1 herbicidal effect (growth inhibition rating 0-5): flooding treatment #1
Method: (§1) (#1) Test for Herbicidal Effect in Flooding Treatment: Styrol cups each having an opening diameter of 8 cm (about 52 cm^2) were respectively filled with soil (45 ml) which had been passed through a sieve (2 mm). Water (about 115 ml) was mixed with the soil such that the soil was flooded. After the soil stood still for 24 hours, Monochoria vaginalis, Echinochloa crus-galli (L.) P. Beauv. var. formosensis Ohwi, Cyperus difformis (umbrella sedge), and Scirpus juncoides were seeded. Each of the compounds of the present invention was dissolved in acetone, and the obtained product was then diluted with water containing Tween 80®. Each of the resultant chemical solutions was dropped on the entire surface of an associated one of treatment sections, so that each section was treated with 1 ml of the respective chemical solution (a dose of 2 kg/ha). After the treatment, the plants were grown in a glasshouse. On day 21, a survey was conducted on the herbicidal activity by visual observation, and evaluation was made according to the following criteria. 0: Growth inhibition effect is less than 10%. 1: Growth inhibition effect is equal to or greater than 10%, and less than 30%. 2; Growth inhibition effect is equal to or greater than 30%, and less than 50%. 3: Growth inhibition effect equal to or greater than 50%, and less than 70%. 4: Growth inhibition effect is equal to or greater than 70%, and less than 90%. 5: Growth inhibition effect is equal to or greater than 90%, or complete withering is achieved. ECHDG=Echinochloa crus-galli (L.) P. Beauv. var. formosensis Ohwi, MONVA=Monochoria vaginalis, SCIJU=Scirpus juncoides, CYMIC=Cyperus microiria.

Scirpus juncoides = assay: Test for Herbicidal Effect in Flooding Treatment (#1), SCIJU; conditions: for SCIJU #1 herbicidal effect (growth inhibition grade): flooding treatment at seeding, dose 2 kg/ha, visual observation on day 21; for SCIJU #1 herbicidal effect (growth inhibition rating 0-5): flooding treatment #1
Method: as §1

[2] = test system: Echinochloa crus-galli (L.) P. Beauv. var. formosensis Ohwi; assay: Test for Herbicidal Effect in Flooding Treatment (#2), ECHDG at 2-2.5 leaf stage; conditions: for ECHDG (2-2.5L) #2 herbicidal effect (growth inhibition grade): flooding treatment at 2-2.5 leaf stage, dose 0.2 kg/ha, visual observation on day 21; for ECHDG (2-2.5L) #2 herbicidal effect (growth inhibition rating 0-5): flooding treatment #2, 2-2.5 leaf stage
Method: (#2) Test for Herbicidal Effect in Flooding Treatment: Styrol cups each having an opening diameter of 13 cm (about 130 cm^2) were respectively filled with muddy soil (500 ml). Water (about 300 ml) was mixed with the soil such that the soil was flooded. After the soil stood still for 24 hours, Echinochloa crus-galli (L.) P. Beauv. var. formosensis Ohwi was seeded. When the Echinochloa crus-galli (L.) P. Beauv. var. formosensis Ohwi grew to reach 2-2.5 leaf stage, chemical solutions were dropped on the entire surface of treatment sections, so that each section is treated with 1 ml of the respective chemical solution (a dose of 0.2 kg/ha). Each of the chemical solutions was prepared by dissolving associated one of the compounds of the present invention in acetone, followed by dilution with water containing Tween 80 g. After the treatment, the plants were grown in a glasshouse. On day 21, a survey was conducted on the herbicidal activity by visual observation, and evaluation was made according to the following criteria. 0: Growth inhibition effect is less than 10%. 1: Growth inhibition effect is equal to or greater than 10%, and less than 30%. 2; Growth inhibition effect is equal to or greater than 30%, and less than 50%. 3: Growth inhibition effect equal to or greater than 50%, and less than 70%. 4: Growth inhibition effect is equal to or greater than 70%, and less than 90%. 5: Growth inhibition effect is equal to or greater than 90%, or complete withering is achieved. ECHDG=Echinochloa crus-galli (L.) P. Beauv. var. formosensis Ohwi, MONVA=Monochoria vaginalis, SCIJU=Scirpus juncoides, CYMIC=Cyperus microiria. The herbicidal activity of the following comparative compounds A and B (the compounds disclosed Japanese Unexamined Patent Publication No. 2003-096059) were evaluated in a manner pursuant to Test Example 1. (#2).

## O=S(=O)(Cc1c(F)cccc1OC(F)(F)F)c1ncc(Cl)s1 [Compound 1C-48]
[1]
  ECHDG #1 herbicidal effect (growth inhibition grade): 5 (Growth inhibition effect is equal to or greater than 90%, or complete withering is achieved)
Scirpus juncoides
  SCIJU #1 herbicidal effect (growth inhibition grade): 5 (Growth inhibition effect is equal to or greater than 90%, or complete withering is achieved)
[2]
  ECHDG (2-2.5L) #2 herbicidal effect (growth inhibition grade): 5 (Growth inhibition effect is equal to or greater than 90%, or complete withering is achieved)

## [O-][S+](Cc1c(OC(F)(F)C(F)(F)F)cccc1C(F)(F)F)c1ncc(Br)s1 (stereo not shown) [Compound 1B-25]
[1]
  ECHDG #1 herbicidal effect (growth inhibition rating 0-5): 5 (Growth inhibition effect is equal to or greater than 90%, or complete withering is achieved)
Scirpus juncoides
  SCIJU #1 herbicidal effect (growth inhibition rating 0-5): 5 (Growth inhibition effect is equal to or greater than 90%, or complete withering is achieved)
[2]
  ECHDG (2-2.5L) #2 herbicidal effect (growth inhibition rating 0-5): 5 (Growth inhibition effect is equal to or greater than 90%, or complete withering is achieved)

## CC(C)(C)[Si](C)(C)Oc1cccc(F)c1CS(=O)(=O)c1ncc(Cl)s1 [Compound 1C-178]
[1]
  ECHDG #1 herbicidal effect (growth inhibition grade): 5 (Growth inhibition effect is equal to or greater than 90%, or complete withering is achieved)
Scirpus juncoides
  SCIJU #1 herbicidal effect (growth inhibition grade): 4 (Growth inhibition effect is equal to or greater than 70%, and less than 90%)

## O=S(=O)(Cc1ccc(F)c(Oc2ccccc2)c1)c1ncc(Cl)s1 [Compound 1C-86]
[1]
  ECHDG #1 herbicidal effect (growth inhibition grade): 5 (Growth inhibition effect is equal to or greater than 90%, or complete withering is achieved)
[2]
  ECHDG (2-2.5L) #2 herbicidal effect (growth inhibition grade): 1 (Growth inhibition effect is equal to or greater than 10%, and less than 30%)

## [O-][S+](Cc1ccccc1OC(F)(F)C(F)F)c1ncc(Br)s1 (stereo not shown) [Compound 1B-23]
[1]
  ECHDG #1 herbicidal effect (growth inhibition rating 0-5): 5 (Growth inhibition effect is equal to or greater than 90%, or complete withering is achieved)
[2]
  ECHDG (2-2.5L) #2 herbicidal effect (growth inhibition rating 0-5): 4 (Growth inhibition effect is equal to or greater than 70%, and less than 90%)

## COc1ccc(CS(=O)(=O)c2ncc(Cl)s2)c(F)c1 [Compound 1C-1]
[1]
  ECHDG #1 herbicidal effect (growth inhibition grade): 5 (Growth inhibition effect is equal to or greater than 90%, or complete withering is achieved)
Scirpus juncoides
  SCIJU #1 herbicidal effect (growth inhibition grade): 4 (Growth inhibition effect is equal to or greater than 70%, and less than 90%)

## O=C(CCl)Oc1cccc(F)c1CS(=O)(=O)c1ncc(Cl)s1 [Compound 1C-173]
Scirpus juncoides
  SCIJU #1 herbicidal effect (growth inhibition grade): 4 (Growth inhibition effect is equal to or greater than 70%, and less than 90%)

## CCOC(=O)C(F)Oc1cccc(F)c1CS(=O)(=O)c1ncc(Cl)s1 (stereo not shown) [Compound 1C-182]
[1]
  ECHDG #1 herbicidal effect (growth inhibition grade): 5 (Growth inhibition effect is equal to or greater than 90%, or complete withering is achieved)
Scirpus juncoides
  SCIJU #1 herbicidal effect (growth inhibition grade): 3 (Growth inhibition effect equal to or greater than 50%, and less than 70%)

## CCS(=O)(=O)c1cccc(F)c1C[S+]([O-])c1ncc(Cl)s1 (stereo not shown) [Compound 1B-28]
[1]
  ECHDG #1 herbicidal effect (growth inhibition rating 0-5): 5 (Growth inhibition effect is equal to or greater than 90%, or complete withering is achieved)
Scirpus juncoides
  SCIJU #1 herbicidal effect (growth inhibition rating 0-5): 4 (Growth inhibition effect is equal to or greater than 70%, and less than 90%)

## [O-][S+](Cc1c(Cl)cccc1OC(F)(F)F)c1ncc(Br)s1 (stereo not shown) [Compound 1B-22]
Scirpus juncoides
  SCIJU #1 herbicidal effect (growth inhibition rating 0-5): 5 (Growth inhibition effect is equal to or greater than 90%, or complete withering is achieved)
[2]
  ECHDG (2-2.5L) #2 herbicidal effect (growth inhibition rating 0-5): 5 (Growth inhibition effect is equal to or greater than 90%, or complete withering is achieved)

## COC(=O)COc1cccc(F)c1CS(=O)(=O)c1ncc(Cl)s1 [Compound 1C-181]
[1]
  ECHDG #1 herbicidal effect (growth inhibition grade): 5 (Growth inhibition effect is equal to or greater than 90%, or complete withering is achieved)
Scirpus juncoides
  SCIJU #1 herbicidal effect (growth inhibition grade): 4 (Growth inhibition effect is equal to or greater than 70%, and less than 90%)

## O=S(=O)(Cc1ccccc1OC(F)(F)C(F)F)c1ncc(Br)s1 [Compound 1C-163]
[1]
  ECHDG #1 herbicidal effect (growth inhibition grade): 5 (Growth inhibition effect is equal to or greater than 90%, or complete withering is achieved)
Scirpus juncoides
  SCIJU #1 herbicidal effect (growth inhibition grade): 5 (Growth inhibition effect is equal to or greater than 90%, or complete withering is achieved)
